We go through two compounds from paper PMC9405596, “Evaluation of the Anti-Leishmania mexicana and -Trypanosoma brucei Activity and Mode of Action of 4,4′-(Arylmethylene)bis(3-methyl-1-phenyl-1H-pyrazol-5-ol)” (Biomedicines, 2022).

The test system of series [1] is L. mexicana promastigotes. In words: MTT viability assay against L. mexicana promastigotes. In kind it is cell-based, Leishmania mexicana. As to conditions: Leishmania mexicana, 48 h, read-out: L. mexicana Promastigote IC50, promastigotes, 48 h, MTT. As for the experimental part: The leishmanicidal activity against promastigotes from L. mexicana was evaluated by measuring parasites’ mitochondrial activity using the MTT (Thiazolyl Blue Tetrazolium Bromide) colorimetric assay as described previously. […] The medium was renewed every third day and subcultures were prepared when parasite density reached 1 × 10^7 parasites/mL. A Neubauer chamber was used to determine parasite density.

Series [2] relates to bloodstream form of T. b. brucei (strain 427). In words: Bioluminescence viability assay against bloodstream T. b. brucei expressing luciferase. The following applies: for T. brucei SI vs. Hepatocytes: CC50 HepG2 hepatocytes/IC50 T. brucei; for IC50: Trypanosoma brucei, 24 h, read-out: T. brucei bloodstream IC50, 24 h, bioluminescence.
Series [3] in a line: MTT cytotoxicity assay, murine macrophages. In kind it is cell-based. As to conditions: mouse, RAW 264.7 macrophage cells, RAW 264.7, 48 h. In general terms: Tetrazolium dyes change colour on reduction, which living cells bring about.
Another series deals with bloodstream T. b. brucei. In words: Microscopic observation of cell motility. In kind it is cell-based, Trypanosoma brucei brucei. As to conditions: 0.9 µM, 24 h, vs vehicle-treated parasites.
The nature of series [4]: MTT cytotoxicity assay, HepG2. The following applies: human, HepG2 cells, HepG2, 72 h, read-out: CC50 HepG2 Hepatocytes. It counts as cell-based.
Series [5] concerns Human hepatocyte cell line HepG2. As to conditions: read-out: CC50 HepG2 Hepatocytes, ref [47]; cited from earlier work.

As usually defined, the IC50 is the midpoint of a concentration-inhibition curve. Usually CC50 stands for the concentration at which the toxic effect on the cells reaches its halfway point. Take `Cc1nn(-c2ccccc2)c(O)c1C(c1ccc(O)cc1O)c1c(C)nn(-c2ccccc2)c1O` [Compound 2y, 4,4′-[(2,4-dihydroxyphenyl)methylene]bis(3-methyl-1-phenyl-1H-pyrazol-5-ol)]: the figures for the IC50 in series [1] and in series [2] were over 50 µM and 0.9 ± 0.2 µM, respectively. The “T. brucei SI vs. Hepatocytes” value in series [2] is over 111. The “T. brucei bloodstream SI vs. Macrophages” value in series [2] (CC50 RAW macrophages/IC50 T. brucei) was 189. The CC50 at 48 h in series [3] was determined as 170 ± 1 µM. The “cell motility by microscopic observation” value with bloodstream T. b. brucei is “did not reveal an impairment of cell motility”. The CC50 at 72 h in series [4] is over 100 µM.

Regarding `CC1CS(=O)(=O)CCN1/N=C/c1ccc([N+](=O)[O-])o1` (stereo not drawn) [Nifurtimox, reference compound], in series [2], the “T. brucei SI vs. Hepatocytes” value is given as 13 and the IC50 stood at 3.5 µM. Moreover, the “SI against T. brucei, range over both mammalian cell lines” value in series [2] (murine macrophages and HepG2 hepatocytes) is recorded as 13–28.5. The same compound returned a CC50 at 48 h in series [3] of over 100 µM. Also, in series [5], the half-maximal cytotoxic concentration (CC50) was 45 ± 1 µM.
